Test results: patent US12606544B2, “JAK1 selective kinase inhibitor” (DIZAL (JIANGSU) PHARMACEUTICAL CO., LTD., priority 2019, dated 2026)

Key:
[1] = system: phosphorylation of STAT6; assay: Cellular p-STAT6 assay, IL-13 stimulated THP-1 cells, flow cytometry; assay type: cell-based; settings: Homo sapiens, THP-1, THP-1 cells, IL-13 10 ng/ml; read-out: pSTAT6 IC50
Method: To detect phosphorylated STAT6 (pSTAT6), THP-1 cells were harvested by centrifugation at 250 g for 5 min and resuspended in assay medium (RPMI1640+10% FBS) to 2×10^5 cells/well. Test compounds were applied to assay plates in serial dilution from 1 μM to 0.3 nM in DMSO. THP-1 cells were incubated with serial diluted compounds for 60 min at room temperature, followed by stimulation of interleukin (IL-13, 10 ng/ml) for 30 min, fixed in Cytofix buffer (BD Biosciences), and permeabilized in 90% methanol on ice. PE anti-pSTAT6 (BD Biosciences) antibodies were stained for 60 min at room temperature before being analyzed by flow cytometry. In the assay the compounds were thus diluted and dose-response curves for inhibition of the signal determine the IC50 for the compounds.

[2] = biological target: T1, TYK2 (Homo sapiens, UniProt P29597); assay: Lance Ultra Kinase Assay, recombinant TYK2; assay type: biochemical; settings: 5 mM ATP
T1 construct: purchased Carna Biosciences
Method: (§1) Recombinant JAK1, JAK2, JAK3 and TYK2 purchased from Carna Biosciences. The inhibition potency of compounds against JAK1, JAK2, JAK3 and TYK2 was assessed using Lance Ultra Kinase Assay.
(§2) In brief, recombinant kinases were pre-incubated in the presence or absence of compound at room temperature for 15 minutes. The reaction was initiated by the addition of 5 mM ATP and substrate peptide which could be phosphorylated by kinases in the reaction. After 60 minutes incubation, the reaction was stopped by the addition of the detection reagent mix containing EDTA. The fluorescence was measured at 615 nm and 665 nm, respectively with excitation wavelength at 320 nm. The calculated signal ratio of 665 nm/615 nm is proportional to the kinase activity.

[3] = biological target: T2, JAK1 (Homo sapiens, UniProt P23458); assay: Lance Ultra Kinase Assay, recombinant JAK1; assay type: biochemical; settings: 5 mM ATP
T2 construct: purchased Carna Biosciences
Method: as §1, §2

[4] = biological target: T3, JAK3 (Homo sapiens, UniProt P52333); assay: Lance Ultra Kinase Assay, recombinant JAK3; assay type: biochemical; settings: 5 mM ATP
T3 construct: purchased Carna Biosciences
T3 sequence (P52333 1-1124): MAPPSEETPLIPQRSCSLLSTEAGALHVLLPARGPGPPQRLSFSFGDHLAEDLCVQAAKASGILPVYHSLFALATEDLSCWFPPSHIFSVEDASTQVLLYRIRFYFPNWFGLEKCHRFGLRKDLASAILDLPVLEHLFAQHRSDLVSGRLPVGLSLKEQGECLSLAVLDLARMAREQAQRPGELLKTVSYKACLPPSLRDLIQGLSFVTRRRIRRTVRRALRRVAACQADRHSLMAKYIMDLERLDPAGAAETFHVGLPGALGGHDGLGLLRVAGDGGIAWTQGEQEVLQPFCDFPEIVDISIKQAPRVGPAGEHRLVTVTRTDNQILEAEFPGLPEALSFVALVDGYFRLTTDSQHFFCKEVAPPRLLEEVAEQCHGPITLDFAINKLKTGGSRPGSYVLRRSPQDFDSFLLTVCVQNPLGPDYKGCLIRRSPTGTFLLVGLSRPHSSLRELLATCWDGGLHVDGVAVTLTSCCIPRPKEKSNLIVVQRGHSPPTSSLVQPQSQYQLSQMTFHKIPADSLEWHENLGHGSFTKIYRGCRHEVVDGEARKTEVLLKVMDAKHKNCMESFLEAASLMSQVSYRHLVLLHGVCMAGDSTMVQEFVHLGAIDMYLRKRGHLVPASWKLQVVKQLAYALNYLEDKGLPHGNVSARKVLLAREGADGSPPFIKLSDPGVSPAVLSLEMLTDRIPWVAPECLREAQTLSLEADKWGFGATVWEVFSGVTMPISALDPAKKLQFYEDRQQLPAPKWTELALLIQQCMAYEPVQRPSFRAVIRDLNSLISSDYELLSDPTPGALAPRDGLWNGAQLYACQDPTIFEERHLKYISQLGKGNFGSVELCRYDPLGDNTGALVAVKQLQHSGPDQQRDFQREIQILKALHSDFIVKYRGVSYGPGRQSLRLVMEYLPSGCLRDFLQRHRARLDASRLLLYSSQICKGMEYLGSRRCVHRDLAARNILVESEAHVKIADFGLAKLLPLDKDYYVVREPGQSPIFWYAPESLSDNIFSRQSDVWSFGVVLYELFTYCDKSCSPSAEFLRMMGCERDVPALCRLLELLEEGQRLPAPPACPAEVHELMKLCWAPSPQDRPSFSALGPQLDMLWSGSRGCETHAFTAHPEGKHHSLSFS
Method: as §1, §2

[5] = biological target: T4, JAK2 (Homo sapiens, UniProt O60674); assay: Lance Ultra Kinase Assay, recombinant JAK2; assay type: biochemical; settings: 5 mM ATP
T4 construct: purchased Carna Biosciences
Method: as §1, §2

T1 sequence (P29597 whole entry): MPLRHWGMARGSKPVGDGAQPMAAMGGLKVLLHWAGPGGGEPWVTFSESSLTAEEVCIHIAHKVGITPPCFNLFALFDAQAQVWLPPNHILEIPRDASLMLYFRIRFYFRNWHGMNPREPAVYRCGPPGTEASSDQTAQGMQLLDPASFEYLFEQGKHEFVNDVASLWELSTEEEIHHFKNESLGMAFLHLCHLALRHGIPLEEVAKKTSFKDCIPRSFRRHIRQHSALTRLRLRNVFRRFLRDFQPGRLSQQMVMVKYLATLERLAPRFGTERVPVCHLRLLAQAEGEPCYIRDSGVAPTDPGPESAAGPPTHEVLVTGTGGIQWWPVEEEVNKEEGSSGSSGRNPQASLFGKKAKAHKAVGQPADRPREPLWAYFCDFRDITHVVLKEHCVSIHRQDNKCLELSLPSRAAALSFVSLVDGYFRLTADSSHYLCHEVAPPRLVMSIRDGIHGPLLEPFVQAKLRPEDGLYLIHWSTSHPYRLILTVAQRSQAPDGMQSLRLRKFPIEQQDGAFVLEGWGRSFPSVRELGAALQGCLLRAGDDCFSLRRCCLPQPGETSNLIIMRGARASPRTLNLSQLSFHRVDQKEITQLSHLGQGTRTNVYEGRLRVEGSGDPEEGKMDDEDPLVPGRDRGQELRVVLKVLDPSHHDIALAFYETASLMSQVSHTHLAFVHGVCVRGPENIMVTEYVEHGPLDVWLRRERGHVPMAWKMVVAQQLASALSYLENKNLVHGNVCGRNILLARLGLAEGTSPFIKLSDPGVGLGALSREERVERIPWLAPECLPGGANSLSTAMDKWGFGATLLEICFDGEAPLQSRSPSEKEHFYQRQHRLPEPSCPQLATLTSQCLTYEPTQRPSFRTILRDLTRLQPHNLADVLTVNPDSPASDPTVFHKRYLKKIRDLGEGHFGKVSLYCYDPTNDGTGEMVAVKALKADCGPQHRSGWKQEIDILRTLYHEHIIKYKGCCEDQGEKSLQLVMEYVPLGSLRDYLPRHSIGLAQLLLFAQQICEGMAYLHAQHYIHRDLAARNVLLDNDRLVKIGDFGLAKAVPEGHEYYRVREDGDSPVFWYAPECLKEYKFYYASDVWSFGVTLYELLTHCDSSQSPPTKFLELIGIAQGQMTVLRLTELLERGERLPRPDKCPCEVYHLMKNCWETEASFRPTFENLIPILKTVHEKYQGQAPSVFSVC
T2 sequence (P23458 whole entry): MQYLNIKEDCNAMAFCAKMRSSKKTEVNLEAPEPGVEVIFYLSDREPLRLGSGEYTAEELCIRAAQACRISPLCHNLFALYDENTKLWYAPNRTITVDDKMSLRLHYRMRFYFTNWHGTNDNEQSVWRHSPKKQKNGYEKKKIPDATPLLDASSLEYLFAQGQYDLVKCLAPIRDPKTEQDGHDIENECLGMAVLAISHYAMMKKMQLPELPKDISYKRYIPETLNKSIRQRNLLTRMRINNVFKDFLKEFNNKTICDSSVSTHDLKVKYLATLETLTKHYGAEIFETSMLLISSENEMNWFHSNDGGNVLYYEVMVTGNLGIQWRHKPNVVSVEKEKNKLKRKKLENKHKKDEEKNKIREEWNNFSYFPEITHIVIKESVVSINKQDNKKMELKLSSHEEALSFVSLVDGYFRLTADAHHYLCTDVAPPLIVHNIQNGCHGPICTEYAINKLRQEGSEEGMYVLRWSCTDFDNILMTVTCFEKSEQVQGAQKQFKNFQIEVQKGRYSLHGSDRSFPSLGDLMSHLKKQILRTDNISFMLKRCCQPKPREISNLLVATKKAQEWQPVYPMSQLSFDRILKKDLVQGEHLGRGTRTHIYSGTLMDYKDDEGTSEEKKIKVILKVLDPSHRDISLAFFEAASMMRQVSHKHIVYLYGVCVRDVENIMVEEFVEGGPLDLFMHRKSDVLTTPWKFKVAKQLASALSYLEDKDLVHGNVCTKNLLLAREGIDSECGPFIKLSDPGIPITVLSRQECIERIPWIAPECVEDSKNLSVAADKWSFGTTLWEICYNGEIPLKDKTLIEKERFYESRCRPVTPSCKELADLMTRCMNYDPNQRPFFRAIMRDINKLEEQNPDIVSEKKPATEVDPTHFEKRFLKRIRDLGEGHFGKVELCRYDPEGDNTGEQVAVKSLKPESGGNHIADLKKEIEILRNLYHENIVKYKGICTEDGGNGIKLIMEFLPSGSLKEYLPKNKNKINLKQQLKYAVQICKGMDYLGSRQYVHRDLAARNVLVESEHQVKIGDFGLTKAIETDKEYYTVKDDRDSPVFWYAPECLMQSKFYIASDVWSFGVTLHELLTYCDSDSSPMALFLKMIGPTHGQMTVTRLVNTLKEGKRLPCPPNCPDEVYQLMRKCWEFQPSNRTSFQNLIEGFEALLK
T4 sequence (O60674 whole entry): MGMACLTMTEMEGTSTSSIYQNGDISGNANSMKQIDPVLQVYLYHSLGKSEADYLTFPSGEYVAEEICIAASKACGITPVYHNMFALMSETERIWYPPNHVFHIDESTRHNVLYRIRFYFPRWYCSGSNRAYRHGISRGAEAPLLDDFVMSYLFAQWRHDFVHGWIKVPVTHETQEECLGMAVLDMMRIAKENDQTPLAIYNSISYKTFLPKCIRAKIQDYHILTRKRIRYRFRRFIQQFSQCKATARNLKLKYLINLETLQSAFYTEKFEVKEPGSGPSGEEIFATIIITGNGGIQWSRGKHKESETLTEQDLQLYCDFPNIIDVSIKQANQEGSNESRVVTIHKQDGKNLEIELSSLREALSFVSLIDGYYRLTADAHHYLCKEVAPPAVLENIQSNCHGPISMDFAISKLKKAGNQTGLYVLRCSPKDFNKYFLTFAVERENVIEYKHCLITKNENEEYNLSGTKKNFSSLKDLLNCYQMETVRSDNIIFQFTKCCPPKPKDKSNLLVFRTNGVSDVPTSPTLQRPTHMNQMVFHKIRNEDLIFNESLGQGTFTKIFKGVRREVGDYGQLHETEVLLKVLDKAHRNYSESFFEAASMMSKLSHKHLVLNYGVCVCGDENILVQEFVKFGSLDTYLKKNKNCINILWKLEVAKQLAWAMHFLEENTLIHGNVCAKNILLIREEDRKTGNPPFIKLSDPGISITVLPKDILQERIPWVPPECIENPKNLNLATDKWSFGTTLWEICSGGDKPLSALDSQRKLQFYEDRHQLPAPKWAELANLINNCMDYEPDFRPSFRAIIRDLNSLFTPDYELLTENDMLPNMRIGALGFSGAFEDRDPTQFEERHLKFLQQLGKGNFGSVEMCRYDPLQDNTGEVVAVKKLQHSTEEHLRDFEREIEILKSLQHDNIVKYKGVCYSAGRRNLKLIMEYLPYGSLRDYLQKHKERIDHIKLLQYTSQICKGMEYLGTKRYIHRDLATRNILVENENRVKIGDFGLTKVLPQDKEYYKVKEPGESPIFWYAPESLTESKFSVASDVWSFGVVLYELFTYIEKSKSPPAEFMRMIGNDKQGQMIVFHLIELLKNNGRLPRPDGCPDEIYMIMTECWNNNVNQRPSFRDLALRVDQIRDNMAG

| Compound | IC50 [1] [nM] | IC50 [2] [nM] | IC50 [3] [nM] | IC50 [4] [nM] | IC50 [5] [nM] |
| --- | --- | --- | --- | --- | --- |
| CNCCOc1ccc(Nc2ncc(F)c(-c3c[nH]c4c(NC(=O)[C@@H](COC)N5CCN(C)CC5)cccc34)n2)cn1 [Example 20, (R)-N-(3-(5-fluoro-2-((6-(2-(methylamino)ethoxy)pyridin-3-yl)amino)pyrimidin-4-yl)-1H-indol-7-yl)-3-methoxy-2-(4-methylpiperazin-1-yl)propanamide] | 7.9 | 2400 | 0.65 | > 10000 | 135 |
| COC[C@H](C(=O)Nc1cccc2c(-c3nc(Nc4ccc(-n5ccnc5)nc4)ncc3F)c[nH]c12)N1CCN(C)CC1 [Example 24, (R)-N-(3-(2-((6-(1H-imidazol-1-yl)pyridin-3-yl)amino)-5-fluoropyrimidin-4-yl)-1H-indol-7-yl)-3-methoxy-2-(4-methylpiperazin-1-yl)propanamide] | 8.9 | 2570 | 0.82 | > 10000 | 403 |
| COC[C@H](C(=O)Nc1cccc2c(-c3nc(Nc4ccc5ocnc5c4)ncc3F)c[nH]c12)N1CCN(C)CC1 [Example 51, (R)-N-(3-(2-(benzo[d]oxazol-5-ylamino)-5-fluoropyrimidin-4-yl)-1H-indol-7-yl)-3-methoxy-2-(4-methylpiperazin-1-yl)propanamide] | 14.9 | 1400 | 0.23 | > 10000 | 186 |
| COC[C@H](C(=O)Nc1cccc2c(-c3nc(Nc4ccc5ncsc5c4)ncc3F)c[nH]c12)N1CCN(C)CC1 [Example 47, (R)-N-(3-(2-(benzo[d]thiazol-6-ylamino)-5-fluoropyrimidin-4-yl)-1H-indol-7-yl)-3-methoxy-2-(4-methylpiperazin-1-yl)propanamide] | 14 | 556 | 0.13 | > 10000 | 81 |
| COC[C@H](C(=O)Nc1cccc2c(-c3nc(Nc4ccc5c(C(=O)OC)n[nH]c5c4)ncc3F)c[nH]c12)N1CCN(C)CC1 [Example 44, methyl (R)-6-((5-fluoro-4-(7-(3-methoxy-2-(4-methylpiperazin-1-yl)propanamido)-1H-indol-3-yl)pyrimidin-2-yl)amino)-1H-indazole-3-carboxylate] | 13.2 | > 10000 | 0.27 | > 10000 | 147 |
| CNC(=O)Cc1ccc(Nc2ncc(F)c(-c3c[nH]c4c(NC(=O)[C@@H](COC)N5CCN(C)CC5)cccc34)n2)cn1 [Example 39, (R)-N-(3-(5-fluoro-2-((6-(2-(methylamino)-2-oxoethyl)pyridin-3-yl)amino)pyrimidin-4-yl)-1H-indol-7-yl)-3-methoxy-2-(4-methylpiperazin-1-yl)propanamide] | 11.9 | 974 | 0.23 | > 10000 | 316 |
| COC[C@H](C(=O)Nc1cccc2c(-c3nc(Nc4ccc5[nH]ncc5c4)ncc3F)c[nH]c12)N1CCN(C)CC1 [Example 32, (R)-N-(3-(2-((1H-indazol-5-yl)amino)-5-fluoropyrimidin-4-yl)-1H-indol-7-yl)-3-methoxy-2-(4-methylpiperazin-1-yl)propanamide] | 10.6 | 1490 | 0.16 | 9280 | 87 |
| COC[C@H](C(=O)Nc1cccc2c(-c3nc(Nc4cncc(O)c4)ncc3F)c[nH]c12)N1CCN(C)CC1 [Example 28, (R)-N-(3-(5-fluoro-2-((5-hydroxypyridin-3-yl)amino)pyrimidin-4-yl)-1H-indol-7-yl)-3-methoxy-2-(4-methylpiperazin-1-yl)propanainide] | 9.6 | 1180 | 0.12 | > 10000 | 162 |
| COC[C@H](C(=O)Nc1cccc2c(-c3nc(Nc4ccc5scnc5c4)ncc3F)c[nH]c12)N1CCN(C)CC1 [Example 26, (R)-N-(3-(2-(benzo[d]thiazol-5-ylamino)-5-fluoropyrimidin-4-yl)-1H-indol-7-yl)-3-methoxy-2-(4-methylpiperazin-1-yl)propanamide] | 9.1 | 1260 | 0.07 | > 10000 | 100 |
| COC[C@H](C(=O)Nc1cccc2c(-c3nc(Nc4ccc5c(c4)CCOC5=O)ncc3F)c[nH]c12)N1CCN(C)CC1 [Example 42, (R)-N-(3-(5-fluoro-2-((1-oxoisochroman-6-yl)amino)pyrimidin-4-yl)-1H-indol-7-yl)-3-methoxy-2-(4-methylpiperazin-1-yl)propanamide] | 12.8 | 560 | 0.07 | 5260 | 16 |
| COC[C@H](C(=O)Nc1cccc2c(-c3nc(Nc4cnc(C)c(C(=O)OC)c4)ncc3F)c[nH]c12)N1CCN(C)CC1 [Example 7, methyl (R)-5-((5-fluoro-4-(7-(3-methoxy-2-(4-methylpiperazin-1-yl)propanamido)-1H-indol-3-yl)pyrimidin-2-yl)amino)-2-methylnicotinate] | 6.2 | 634 | 0.21 | > 10000 | 58 |
| COC[C@H](C(=O)Nc1cccc2c(-c3nc(Nc4cccc(CCC(=O)OC)n4)ncc3F)c[nH]c12)N1CCN(C)CC1 [Example 55, methyl (R)-3-(6-((5-fluoro-4-(7-(3-methoxy-2-(4-methylpiperazin-1-yl)propanamido)-1H-indol-3-yl)pyrimidin-2-yl)amino)pyridin-2-yl)propanoate] | 15.3 | > 10000 | 12.8 | > 10000 | 2710 |
| COCCOc1ccc(Nc2ncc(F)c(-c3c[nH]c4c(NC(=O)[C@@H](COC)N5CCN(C)CC5)cccc34)n2)cn1 [Example 65, (R)-N-(3-(5-fluoro-2-((6-(2-methoxyethoxy)pyridin-3-yl)amino)pyrimidin-4-yl)-1H-indol-7-yl)-3-methoxy-2-(4-methylpiperazin-1-yl)propanamide] | 18.8 | 1260 | 0.32 | > 10000 | 198 |
| COC[C@H](C(=O)Nc1cccc2c(-c3nc(Nc4cncc(CCCO)c4)ncc3F)c[nH]c12)N1CCN(C)CC1 [Example 25, (R)-N-(3-(5-fluoro-2-((5-(3-hydroxypropyl)pyridin-3-yl)amino)pyrimidin-4-yl)-1H-indol-7-yl)-3-methoxy-2-(4-methylpiperazin-1-yl)propanamide] | 8.9 | 273 | 0.2 | > 10000 | 9 |
| COC[C@H](C(=O)Nc1cccc2c(-c3nc(Nc4ccc5[nH]ccc5c4)ncc3F)c[nH]c12)N1CCN(C)CC1 [Example 41, (R)-N-(3-(2-((1H-indol-5-yl)amino)-5-fluoropyrimidin-4-yl)-1H-indol-7-yl)-3-methoxy-2-(4-methylpiperazin-1-yl)propanamide] | 12.6 | 1430 | 0.22 | > 10000 | 110 |
